Source: patent US9181259B2 (LEO PHARMA A/S, priority 2012, dated 2015)
Where a name gives a salt, the structure may show the parent alone.

Target: T1, NK1 receptor (Homo sapiens, UniProt P25103)
T1 construct: Measurement of NK1 Receptor Mediated Intracellular [Ca^2+]; Mobilization in U251 MG Cells Using FLIPR; endogenous in cells; host or cells: U251 MG cells
Assay: NK1 receptor mediated intracellular [Ca2+] mobilization in U251 MG cells using FLIPR
Assay type: cell-based
Settings: antagonist potency against Substance P (EC80), normalized to 100 nM Aprepitant, read-out: U251MG (FLIPR pIC50) (converted)
Procedure: Measurement of NK1 Receptor Mediated Intracellular [Ca^2+] Mobilization in U251 MG Cells Using FLIPR
U251 MG cells were seeded into black walled clear-bottom 384-well plates (Greiner Bio-One GmbH, Frickenhausen, Germany) at a density of 15,000 cells/well in 50 μl culture medium and cultured overnight in a 37° C. 5% CO2 incubator. The cells were then loaded with the calcium sensitive dye Fluo-4 (Invitrogen) at 1 μM in buffer, containing 0.04%
Pluronic F-127 (Sigma-Aldrich), and 2.5 mM probenecid (Sigma-Aldrich) for 60 min in a humidified atmosphere of 5% CO2. Thereafter, cells were washed three times in washing buffer containing 20 mM HEPES and 2.5 mM probenecid pH 7.3. Serial dilutions of test compounds in assay buffer containing 2% dimethyl sulfoxide (final concentration in the cell plate is 0.5% DMSO) and/or agonist were then automatically pipetted into each test well, and the peak fluorescence intensity was recorded (lex, 488 nm; lem, 540 nm) by the FLIPR instrument (Molecular Devices) for approximately 5 min. To measure antagonist potency, cell plates were first incubated with the test compound and intracellular fluorescence recorded for 5 minutes to check a potential agonist effect of the test compound. Cell plates were quickly removed from the FLIPR instrument and incubated for additional 10 minutes at 37° C. before being moved back to the FLIPR instrument for Substance P (EC80) addition. The response was measured as the peak relative fluorescence change after agonist addition.
The IC50 value is defined as the molar concentration of a test compound that produces a response midway between the fitted top and the fitted bottom. pIC50=−log IC50
Formula is listed as follows: Fit(% Effect calculated)=(A+((B−A)/(1+((C/X)^D)))) • A: bottom value • B: top value • C: […] • D: Hill slope coefficient
Ref: Sullivan E, Tucker E M, and Dale I L. Measurement of [Ca^2+] using the Fluorometric Imaging Plate Reader (FLIPR). Methods Mol Biol 114:125-133, 1999.
Compounds of the present invention were tested according to example 120.

T1 sequence (P25103 whole entry): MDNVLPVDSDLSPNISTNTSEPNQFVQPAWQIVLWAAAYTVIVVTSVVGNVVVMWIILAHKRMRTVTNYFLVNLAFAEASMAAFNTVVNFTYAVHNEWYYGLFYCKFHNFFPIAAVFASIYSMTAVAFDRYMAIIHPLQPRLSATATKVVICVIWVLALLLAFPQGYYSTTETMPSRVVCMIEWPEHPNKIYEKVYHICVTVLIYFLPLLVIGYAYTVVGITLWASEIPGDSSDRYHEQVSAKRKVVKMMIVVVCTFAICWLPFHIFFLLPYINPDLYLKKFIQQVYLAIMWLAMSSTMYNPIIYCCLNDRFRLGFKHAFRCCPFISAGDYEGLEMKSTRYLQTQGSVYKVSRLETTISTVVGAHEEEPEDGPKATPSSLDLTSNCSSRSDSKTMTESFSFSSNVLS

Row | SMILES | IC50 [nM]
1 | Cc1ccccc1C1C2CCC(=O)N2CCCN1C(=O)N(C)Cc1cc(C(F)(F)F)cc(C(F)(F)F)c1 (mixture of isomers) [Compound 7, N-{[3,5-bis(trifluoromethyl)phenyl]methyl}-N-methyl-1-(2-methylphenyl)-7-oxo-octahydro-1H-pyrrolo[1,2-a][1,4]diazepine-2-carboxamide] | 1.07
2 | Cc1ccccc1C1C2CCC(=O)N2CCN1C(=O)N(C)Cc1cc(C(F)(F)F)cc(C(F)(F)F)c1 (racemic) [Compound 16, N-{[3,5-bis(trifluoromethyl)phenyl]methyl}-N-methyl-1-(2-methylphenyl)-6-oxo-octahydropyrrolo[1,2-a]piperazine-2-carboxamide] | 0.229
3 | Cc1ccccc1C1C2CCCN2CCN1C(=O)N(C)Cc1cc(C(F)(F)F)cc(C(F)(F)F)c1 (racemic) [Compound 24, N-{[3,5-bis(trifluoromethyl)phenyl]methyl}-N-methyl-1-(2-methylphenyl)-octahydropyrrolo[1,2-a]piperazine-2-carboxamide] | 1.35
4 | Cc1ccccc1C1C2CC(CCO)C(=O)N2CCN1C(=O)N(C)C(CCO)c1cc(C(F)(F)F)cc(C(F)(F)F)c1 (racemic) [Compound 33, N-{1-[3,5-bis(trifluoromethyl)phenyl]-3-hydroxypropyl}-7-(2-hydroxyethyl)-N-methyl-1-(2-methylphenyl)-6-oxo-octahydropyrrolo[1,2-a]piperazine-2-carboxamide] | 0.158
5 | Cc1ccccc1C1C2CC(CCO)(CCO)C(=O)N2CCN1C(=O)N(C)Cc1cc(C(F)(F)F)cc(C(F)(F)F)c1 (racemic) [Compound 42, N-{[3,5-bis(trifluoromethyl)phenyl]methyl}-7,7-bis(2-hydroxyethyl)-N-methyl-1-(2-methylphenyl)-6-oxo-octahydropyrrolo[1,2-a]piperazine-2-carboxamide] | 0.0955
6 | Cc1cc(C)cc(CN(C)C(=O)N2CCN3C(=O)CCC3C2c2ccccc2C)c1 (single isomer, unassigned) [Compound 1, N-[(3,5-dimethylphenyl)methyl]-N-methyl-1-(2-methylphenyl)-6-oxo-octahydropyrrolo[1,2-a]piperazine-2-carboxamide] | 6.46
7 | Cc1cc(C)cc(CN(C)C(=O)N2CCN3C(=O)CCC3C2c2ccccc2C)c1 (single isomer, unassigned) [Compound 2, N-[(3,5-dimethylphenyl)methyl]-N-methyl-1-(2-methylphenyl)-6-oxo-octahydropyrrolo[1,2-a]piperazine-2-carboxamide] | 77.6
8 | Cc1ccccc1C1C2CCC(=O)N2CCN1C(=O)N(C)Cc1cc(F)cc(C(F)(F)F)c1 (single isomer, unassigned) [Compound 4, N-{[3-fluoro-5-(trifluoromethyl)phenyl]methyl}-N-methyl-1-(2-methylphenyl)-6-oxo-octahydropyrrolo[1,2-a]piperazine-2-carboxamide] | 81.3
9 | Cc1ccccc1C1C2CCC(=O)N2CCN1C(=O)N(C)Cc1cccc(C(F)(F)F)c1 (single isomer, unassigned) [Compound 5, N-methyl-1-(2-methylphenyl)-6-oxo-N-{[3-(trifluoromethyl)phenyl]methyl}-octahydropyrrolo[1,2-a]piperazine-2-carboxamide] | 7.41
10 | Cc1ccccc1C1C2CCC(=O)N2CCN1C(=O)N(C)Cc1cccc(C(F)(F)F)c1 (single isomer, unassigned) [Compound 6, N-methyl-1-(2-methylphenyl)-6-oxo-N-{[3-(trifluoromethyl)phenyl]methyl}-Octahydropyrrolo[1,2-a]piperazine-2-carboxamide] | > 100
11 | Cc1ccccc1[C@@H]1[C@H]2CCC(=O)N2CCN1C(=O)N(C)[C@H](C)c1cc(C(F)(F)F)cc(C(F)(F)F)c1 (single isomer, unassigned) [Compound 10] | 12.9
12 | COC(=O)C1(C)CC2C(c3ccccc3C)N(C(=O)N(C)Cc3cc(C(F)(F)F)cc(C(F)(F)F)c3)CCN2C1=O (single isomer, unassigned) [Compound 12, Methyl 2-({[3,5-bis(trifluoromethyl)phenyl]methyl}(methyl)carbamoyl)-7-methyl-1-(2-methylphenyl)-6-oxo-octahydropyrrolo{1,2-a}piperazine-7-carboxylate] | 1.78
13 | COC(=O)C1(C)CC2C(c3ccccc3C)N(C(=O)N(C)Cc3cc(C(F)(F)F)cc(C(F)(F)F)c3)CCN2C1=O (single isomer, unassigned) [Compound 13, Methyl 2-({[3,5-bis(trifluoromethyl)phenyl]methyl}(methyl)carbamoyl)-7-methyl-1-(2-methylphenyl)-6-oxo-octahydropyrrolo{1,2-a}piperazine-7-carboxylate] | 4.17
14 | COC(=O)C1(C)CC2C(c3ccccc3C)N(C(=O)N(C)Cc3cc(C(F)(F)F)cc(C(F)(F)F)c3)CCN2C1=O (single isomer, unassigned) [Compound 14, Methyl 2-({[3,5-bis(trifluoromethyl)phenyl]methyl}(methyl)carbamoyl)-7-methyl-1-(2-methylphenyl)-6-oxo-octahydropyrrolo{1,2-a}piperazine-7-carboxylate] | 0.0692
15 | COC(=O)C1(C)CC2C(c3ccccc3C)N(C(=O)N(C)Cc3cc(C(F)(F)F)cc(C(F)(F)F)c3)CCN2C1=O (single isomer, unassigned) [Compound 15, Methyl 2-({[3,5-bis(trifluoromethyl)phenyl]methyl}(methyl)carbamoyl)-7-methyl-1-(2-methylphenyl)-6-oxo-octahydropyrrolo{1,2-a}piperazine-7-carboxylate] | 0.1
16 | Cc1ccccc1C1C2CCC(=O)N2CCN1C(=O)N(C)Cc1cc(C(F)(F)F)cc(C(F)(F)F)c1 (single isomer, unassigned) [Compound 17, N-{[3,5-bis(trifluoromethyl)phenyl]methyl}-N-methyl-1-(2-methylphenyl)-6-oxo-octahydropyrrolo[1,2-a]piperazine-2-carboxamide] | 28.2
17 | Cc1ccccc1C1C2CC(CO)C(=O)N2CCN1C(=O)N(C)Cc1cc(C(F)(F)F)cc(C(F)(F)F)c1 (single isomer, unassigned) [Compound 19, N-{[3,5-bis(trifluoromethyl)phenyl]methyl}-7-(hydroxymethyl)-N-methyl-1-(2-methylphenyl)-6-oxo-octahydropyrrolo[1,2-a]piperazine-2-carboxamide] | 3.72
18 | Cc1ccccc1C1C2CC(CO)C(=O)N2CCN1C(=O)N(C)Cc1cc(C(F)(F)F)cc(C(F)(F)F)c1 (single isomer, unassigned) [Compound 20, N-{[3,5-bis(trifluoromethyl)phenyl]methyl}-7-(hydroxymethyl)-N-methyl-1-(2-methylphenyl)-6-oxo-octahydropyrrolo[1,2-a]piperazine-2-carboxamide] | 1.66
19 | Cc1ccccc1C1C2CC(CO)C(=O)N2CCN1C(=O)N(C)Cc1cc(C(F)(F)F)cc(C(F)(F)F)c1 (single isomer, unassigned) [Compound 21, N-{[3,5-bis(trifluoromethyl)phenyl]methyl}-7-(hydroxymethyl)-N-methyl-1-(2-methylphenyl)-6-oxo-octahydropyrrolo[1,2-a]piperazine-2-carboxamide] | 0.0407
20 | Cc1ccccc1C1C2CC(CO)C(=O)N2CCN1C(=O)N(C)Cc1cc(C(F)(F)F)cc(C(F)(F)F)c1 (single isomer, unassigned) [Compound 23, N-{[3,5-bis(trifluoromethyl)phenyl]methyl}-7-(hydroxymethyl)-N-methyl-1-(2-methylphenyl)-6-oxo-octahydropyrrolo[1,2-a]piperazine-2-carboxamide] | 0.0776
21 | Cc1ccccc1C1C2CC(C)(C(=O)N(C)C)C(=O)N2CCN1C(=O)N(C)Cc1cc(C(F)(F)F)cc(C(F)(F)F)c1 (single isomer, unassigned) [Compound 25, 2-N-{[3,5-bis(trifluoromethyl)phenyl]methyl}-2-N,7-N,7-N,7-tetramethyl-1-(2-methylphenyl)-6-oxo-octahydropyrrolo[1,2-a]piperazine-2,7-dicarboxamide] | 22.9
22 | Cc1ccccc1C1C2CC(CO)CN2CCN1C(=O)N(C)Cc1cc(C(F)(F)F)cc(C(F)(F)F)c1 (single isomer, unassigned) [Compound 27, N-{[3,5-bis(trifluoromethyl)phenyl]methyl}-7-(hydroxymethyl)-N-methyl-1-(2-methylphenyl)-octahydropyrrolo[1,2-a]piperazine-2-carboxamide; methanesulfonic acid salt] | 58.9
